Data: US20180057505A1, “BICYCLIC HETEROARYL COMPOUNDS USEFUL AS INHIBITORS OF THE PAR-2 SIGNALING PATHWAY” (VERTEX PHARMACEUTICALS INCORPORATED, priority 2015, published 2018)

Tests used:
Format in all cases: cell-based
[1] = biological target: T1, PAR2 (HT-29 cells) (Homo sapiens, UniProt P55085); experiment: Ca FLIPR TETRA assay, ANTAGONIST mode, activator 3.1 U/mL trypsin; details: HT-29 cells, activator 3.1 U/mL trypsin; maximal antagonist concentration per Method (A: 0.1, 1 or 2 μM; B: 50 μM)
T1 construct: host or cells: HT-29
T1 sequence (P55085 26-397): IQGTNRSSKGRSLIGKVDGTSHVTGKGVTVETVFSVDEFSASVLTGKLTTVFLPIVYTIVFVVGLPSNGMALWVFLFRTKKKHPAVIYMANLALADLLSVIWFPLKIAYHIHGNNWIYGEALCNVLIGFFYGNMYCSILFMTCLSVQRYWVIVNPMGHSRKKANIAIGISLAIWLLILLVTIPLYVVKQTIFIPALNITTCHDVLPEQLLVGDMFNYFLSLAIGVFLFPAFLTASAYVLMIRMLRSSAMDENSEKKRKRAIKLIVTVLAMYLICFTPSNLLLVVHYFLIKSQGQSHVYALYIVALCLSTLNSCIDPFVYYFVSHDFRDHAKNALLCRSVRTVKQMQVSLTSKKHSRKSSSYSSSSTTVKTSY
In short: (§1)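 Fluorescent Ca2+ dye (calcium 5) loading of overnight-plated HT-29 cells preceded compound addition and a 30 min room-temperature incubation. Responses to the specified activator concentration were then read by FLIPR Tetra in the same plate.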

[2] = tested on: UTP-stimulated Ca2+ response in HT-29 cells; experiment: Ca FLIPR TETRA assay, ANTAGONIST mode, activator 0.6 μM UTP; details: HT-29 cells, activator 0.6 μM UTP
In short: as §1

[3] = biological target: T1, PAR2 (HT-29 cells); experiment: Ca FLIPR TETRA assay, ANTAGONIST mode, activator 8 μM SLIGKV; details: HT-29 cells, activator 8 μM SLIGKV; maximal antagonist concentration per Method (A: 0.1, 1 or 2 μM; B: 50 μM)
In short: as §1

[4] = tested on: Thrombin-stimulated Ca2+ response in HT-29 cells; experiment: Ca FLIPR TETRA assay, ANTAGONIST mode, activator 1 U/mL Thrombin; details: HT-29 cells, activator 1 U/mL Thrombin
In short: as §1

Structure (SMILES) | IC50 [1] | IC50 ([2]; Homo sapiens) | IC50 [3] | IC50 ([4]; Homo sapiens) | IC50 [2] | IC50 [4]
CC(C)(C)c1cc(-c2ccc(F)cc2)nc2cc(C(=O)N3CCN(C(=O)CCC(=O)O)CC3(C)C)oc12 [Example I-194] | 22 nM | > 1000 nM | 9 nM | > 1000 nM |  | 
CC(C)(C(=O)O)C(=O)N1CCN(C(=O)c2cc3nc(-c4ccc(F)cc4)cc(C(C)(C)C)c3o2)C(C)(C)C1 [Example I-195] | 233 nM | > 1000 nM | 96 nM | > 1000 nM |  | 
CC(C)(CC(=O)N1CCN(C(=O)c2cc3nc(-c4ccc(F)cc4)cc(C(C)(C)C)c3o2)C(C)(C)C1)C(=O)O [Example I-196] | 1 nM | > 1000 nM | 0.7 nM | > 1000 nM |  | 
CC(C)(C)c1cc(-c2ccc(F)cc2)nc2cc(C(=O)N3CCN(C(=O)[C@H]4C[C@@H]4C(=O)O)CC3(C)C)oc12 [Example I-197] | 76 nM | > 1000 nM | 48 nM | > 1000 nM |  | 
CC1(C(=O)O)CCC(C(=O)N2CCN(C(=O)c3cc4nc(-c5ccc(F)cc5)cc(C(C)(C)C)c4o3)C(C)(C)C2)CC1 (centres unmarked) [Example I-198] | 0.8 nM | > 1000 nM | 0.1 nM | > 1000 nM |  | 
CC(C)(C)c1cc(-c2ccc(F)cc2)nc2cc(C(=O)N3CCN(C(=O)C4(C(N)=O)CC4)CC3(C)C)oc12 [Example I-199] | 27 nM | > 1000 nM | 17 nM | > 1000 nM |  | 
CC(C)(C)c1cc(-c2ccc(F)cc2)nc2cc(C(=O)N3CCN(S(=O)(=O)C4CC4)CC3(C)C)oc12 [Example I-200] | 6 nM | > 1000 nM | 3 nM | > 1000 nM |  | 
CC(C)(C)c1cc(-c2ccc(F)cc2)nc2cc(C(=O)N3CCN(S(=O)(=O)c4c[nH]cn4)CC3(C)C)oc12 [Example I-201] | 7 nM | > 1000 nM | 4 nM | > 1000 nM |  | 
CCC(C)c1cc(-c2ccc(F)cc2)nc2cc(C(=O)N3CCNC(=O)C3(C)C)oc12 (centres unmarked) [Example I-202] | 5 nM | > 1000 nM | 5 nM | > 1000 nM |  | 
CC1(C)C(=O)NCCN1C(=O)c1cc2nc(-c3ccc(F)cc3)cc(C3CCCC3)c2o1 [Example I-203] | 10 nM | > 1000 nM | 5 nM | > 1000 nM |  | 
CC1(O)CC(C(=O)C2CCN(C(=O)c3cc4nc(-c5ccc(F)cc5)cc(C5(C#N)CC(F)(F)C5)c4o3)C(C)(C)C2)C1 (centres unmarked) [Example I-204] | 4 nM |  | 6 nM |  | > 1000 nM | > 1000 nM
CC1(C)CN(C(=O)C2CC(O)(C(F)(F)F)C2)CCN1C(=O)c1cc2nc(-c3ccc(F)cc3)cc(C3(C#N)CC(F)(F)C3)c2o1 (centres unmarked) [Example I-205] | 1 nM | > 1000 nM | 0.6 nM | > 1000 nM |  | 
CN1CCN(C(=O)c2cc3nc(-c4ccc(F)cc4)cc(C(C)(C)C)c3o2)C(C)(C)C1=O [Example I-206] | 4 nM | > 1000 nM | 4 nM | > 1000 nM |  | 
CC(C)(C)c1cc(-c2ccc(F)cc2)nc2cc(C(=O)N3CCN(CC(=O)O)C(=O)C3(C)C)oc12 [Example I-209] | 370 nM | > 1000 nM | 220 nM | > 1000 nM |  | 
COCCN1CCN(C(=O)c2cc3nc(-c4ccc(F)cc4)cc(C(C)(C)C)c3o2)C(C)(C)C1=O [Example I-210] | 3 nM | > 1500 nM | 2 nM | > 1500 nM |  | 
CC1(C)C(=O)NCCN1C(=O)c1cc2nc(-c3ccc(F)cc3)cc(C3CCCCC3)c2o1 [Example I-211] | 17 nM | > 2000 nM | 7 nM | > 2000 nM |  | 
CC1(C)C(=O)NCCN1C(=O)c1cc2nc(-c3ccc(F)cc3)cc(C3CCC(F)(F)CC3)c2o1 [Example I-212] | 43 nM | > 2000 nM | 13 nM | > 2000 nM |  | 
